Converted amounts (≈) assume the structure as drawn. Like-named read-outs stand apart in the source and are kept apart here.
Legend:
[1] = Comparison of stability (Factors influencing test)
[2] = Comparison of hygroscopicity; format: physicochemical; details: relative humidity 92.5%, 96 hours; for Moisture gain: room temperature
Protocol: The basic compound of compound Z (Example 1) and the different salts of compound Z (Examples 2, 4-6, 9) were studied for their hygroscopicity. A certain amount of the test sample was placed in a precisely weighed glass weighing bottle with a stopper, and weighed accurately. The weighing bottle was openly placed in a desiccator (a saturated potassium nitrate solution was placed in the lower part, with a relative humidity of 92.5%), and kept at room temperature for 96 hours, and then the weighing bottle was covered with the stopper and weighed accurately. The moisture gain was calculated.

[3] = Comparison of solubility of the compounds; format: physicochemical
Protocol: An appropriate amount of a sample was weighted in a glass tube, the selected solvent was added thereto in a gradient and the resultant was observed until it became clear.

[4] = Comparison of appearance and compositions of the compounds; format: physicochemical
Source text: The basic compound of compound Z (Example 1) was compared with the different salts of compound Z (Examples 2, 6-12) for their appearance, compositions, crystalline forms, etc., and the results are shown in the following table: […]

Wistar rats = experiment: Acute toxicity experiments in rats; format: in vivo
Protocol: Wistar rats were randomly divided into 3 groups with 10 rats in each group. The animals were fasted for 12 hours before the administration, and the muscle relaxation state of the animals was observed 1 hour after the administration. The animal's two forepaws were gripped on a 40 cm-high hemp rope for testing for three times. The case in which the animal could put the hind paws on the rope within 15 s for two or more times was regarded as no muscle relaxation. Otherwise, it was regarded as muscle relaxation. After each animal's muscle relaxation test, a catalepsy experiment was performed, and the “grip rod” experiment method was used to determine the rat's rigidity duration. The rat's two forepaws were gently put on a small rod to test the duration time that the rats maintained their two forepaws on the rod in a 45-degree posture. […] If the rat's forepaw had not been put down, the observation was terminated at 180 s.

[5] = High temperature (60° C.), Day 2
[6] = Illumination (4500 lx ± 500 lx), Day 2

| Compound | Purity ([1]; Day 0) | Purity [1, 5] | Purity [1, 6] | Moisture gain [2] | Composition [4] | Crystal water [4] | Static electricity [4] | Hygroscopicity (in words) [2] | other results |
| --- | --- | --- | --- | --- | --- | --- | --- | --- | --- |
| O=C(O)CCC(=O)O.O=c1ccc2ccc(CCN3CCN(c4cccc5sccc45)CC3)cc2[nH]1 [Succinate of compound Z, Succinate of 7-(2-(4-(benzo[b]thiophen-4-yl)piperazin-1-yl)ethyl)quinoline-2(1H)-one] | 98.95% | 99.93% | 99.92% | 2.02% |  |  |  |  |  |
| O=P(O)(O)O.O=c1ccc2ccc(CCN3CCN(c4cccc5sccc45)CC3)cc2[nH]1 [Phosphate of compound Z, Phosphate of 7-(2-(4-(benzo[b]thiophen-4-yl)piperazin-1-yl)ethyl)quinoline-2(1H)-one] |  |  |  |  | constant | No | No |  | Solubility ([3]; Deionized water): 181.2 µg/mL; Solubility ([3]; buffer with pH = 2): 2.8 µg/mL; Solubility ([3]; buffer with pH = 4.5): 0.1 µg/mL |
| Citrate of 7-(2-(4-(benzo[b]thiophen-4-yl)piperazin-1-yl)ethyl)quinoline-2(1H)-one [Citrate of compound Z] |  |  |  | 0.53% | constant | No | No | lower hygroscopicity |  |
| CS(=O)(=O)O.O=c1ccc2ccc(CCN3CCN(c4cccc5sccc45)CC3)cc2[nH]1 [Methanesulfonate of compound Z, Methanesulfonate of 7-(2-(4-(benzo[b]thiophen-4-yl)piperazin-1-yl)ethyl)quinoline-2(1H)-one] | 98.60% | 98.47% | 98.54% | 1.74% |  |  |  | relatively high hygroscopicity | Animal status after single administration (rigidity/muscle relaxation) (Wistar rats; gavage 200 mg/kg, 10 per group, Day 7): 5 normal |
| O=C(O)/C=C/C(=O)O.O=c1ccc2ccc(CCN3CCN(c4cccc5sccc45)CC3)cc2[nH]1 [Fumarate of compound Z, Fumarate of 7-(2-(4-(benzo[b]thiophen-4-yl)piperazin-1-yl)ethyl)quinoline-2(1H)-one] |  |  |  |  | constant | No | No |  | Solubility ([3]; Deionized water): 117.6 µg/mL; Solubility ([3]; buffer with pH = 2): 2.0 µg/mL; Solubility ([3]; buffer with pH = 4.5): 1.8 µg/mL |
| O=c1ccc2ccc(CCN3CCN(c4cccc5sccc45)CC3)cc2[nH]1 [Compound Z, 7-(2-(4-(benzo[b]thiophen-4-yl)piperazin-1-yl)ethyl)quinoline-2(1H)-one] | 98.07% | 98.03% | 98.01% | −0.16% | constant | No | No |  | Solubility in deionized water (comparison in words) ([3]; Deionized water): significantly lower than those of the salts of compound Z; Solubility ([3]; buffer pH 2, aqueous buffer, thermodynamic from solid, buffer with pH = 2, read-out: Solubility): 6.8 µg/mL (≈ 17.5 µM); Solubility ([3]; buffer pH 4.5, aqueous buffer, thermodynamic from solid, buffer with pH = 4.5, read-out: Solubility): 0.7 µg/mL (≈ 1.8 µM); Stability (in words) ([1]; under high temperature and illumination conditions): high stability; Acute toxicity, recovery and animal deaths (comparison in words) (Wistar rats; dose of 200 mg/kg): the highest toxicity, the slowest recovery, and the most animal deaths |
| Cl.O.O=c1ccc2ccc(CCN3CCN(c4cccc5sccc45)CC3)cc2[nH]1 [Monohydrochloride of compound Z, Monohydrochloride Monohydrate of 7-(2-(4-(benzo[b]thiophen-4-yl)piperazin-1-yl)ethyl)quinoline-2(1H)-one] |  |  |  | 7.01% |  |  |  | relatively high hygroscopicity |  |

— patent US11384073B2, “Maleate salt of benzothiophene compound, crystalline form thereof, and use thereof” (SHANGHAI INSTITUTE OF MATERIA MEDICA, CHINESE ACADEMY OF …, priority 2018, dated 2022)
